{"source": "patent US20140120191A1", "about": "“METHOD OF TREATING A DISORDER ASSOCIATED WITH S[…]” (BEECH TREE LABS INC., priority 2011, published 2014)", "test_system": "R. equi", "assay": "R. equi intrabronchial challenge model of pneumonia in foals", "format": "in vivo", "conditions": "SLO 2 IU subcutaneous twice a day without antibiotics", "method": "Animals: 24 foals (average age 4 +/− days old) were used in this challenge model and two additional foals served as uninfected controls. The foals were raised on a Veterinary Science farm and kept with their mares throughout the study. Foals were evaluated shortly after birth for inclusion in the study using the following criteria; normality in physical examination, absence of lung sounds on auscultation, normal temperature, and unremarkable ultrasound examination of the lungs. None of the foals received anti-rhodococcal plasma or other treatments prior to enrollment in the study. The foals were moved with their dams to individual box stalls in a BSL2 isolation facility. Baseline values for heart rate, respiratory rate, temperature, fibrinogen concentration, and leukocyte count were obtained. […]\nAfter the foals were sedated, a flexible fiberoptic endoscope was used to deliver the bacteria suspended in 35 ml of sterile PBS into both main bronchi. […] The foals were returned to their stalls and dams and monitored daily for changes in rectal temperature, respiration, and pulse as determined by physical exam and auscultation of the lungs. […] Clinical signs recorded included lung auscultations, overall attitude, appetite, resting respiratory rate and pulse. […] Daily observation of attitude, appetite, lung auscultation were scored (0-4) and combined to generate an overall daily score for each foal. […]", "note": "“Also recorded” adds a separate entry of the source."}
{"substance": "streptolysin O [SLO alone]", "values": [{"measurement": "treatment effect / clinical course", "value": "deteriorated rapidly and required early euthanasia; also recorded: no treatment effect"}]}
